Results reported in PubChem BioAssay AID1963422 (Molecular Pharmacology Branch, DTP, NCI, 2024).

Test system: 463943-066-T-J2-PDC complex spheroid growth
Assay: Anticancer human tumor 463943-066-T-J2-PDC patient-derived colon adenocarcinoma cell line growth inhibition [Asc]
Conditions: for IC50: curve of first compound; for viability, T/C: stronger effect = lower value
Outline: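 Complex solid-tumor spheroids incorporating human endothelial and mesenchymal stem cells received single agents or combinations over half-log dilution ranges anchored to clinical Cmax.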
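Note: compound exposure lasted 7 days.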
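Throughout, for viability, T/C: 100% = DMSO vehicle control wells.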

Cc1nc(N2CCC3(CC2)COC(C)C3N)c(CO)nc1Sc1ccnc(N)c1Cl (centres undefined) + CNC(C)C(=O)NC1CN(S(=O)(=O)c2cccc(S(=O)(=O)N3CCC4CCC(C(=O)NC(c5ccccc5)c5ccccc5)N4C(=O)C(NC(=O)C(C)NC)C3)c2)CCC2CCC(C(=O)NC(c3ccccc3)c3ccccc3)N2C1=O showed an IC50 (second compound 0.00316 µM) of over 3 µM, an IC50 (second compound 0.01 µM) of over 3 µM and an IC50 (second compound 0.0316 µM) of over 3 µM. The IC50 (second compound 0.1 µM) was over 3 µM, the IC50 (second compound 0.316 µM) was over 3 µM and the IC50 (second compound 1 µM) was over 3 µM. The viability, T/C (second compound 0.00316 µM, first compound 0.00949 µM) was 106%, the viability, T/C (second compound 0.00316 µM, first compound 0.03 µM) was 84.2% and the viability, T/C (second compound 0.00316 µM, first compound 0.0949 µM) was 85.5%. It also gave a viability, T/C (second compound 0.00316 µM, first compound 0.3 µM) of 86.6%, a viability, T/C (second compound 0.00316 µM, first compound 0.949 µM) of 81% and a viability, T/C (second compound 0.00316 µM, first compound 3 µM) of 70.3%. For the same compound, the viability, T/C (second compound 0.01 µM, first compound 0.00949 µM) was 96.2%, the viability, T/C (second compound 0.01 µM, first compound 0.03 µM) was 95.6% and the viability, T/C (second compound 0.01 µM, first compound 0.0949 µM) was 83.1%. It also gave a viability, T/C (second compound 0.01 µM, first compound 0.3 µM) of 85.5%, a viability, T/C (second compound 0.01 µM, first compound 0.949 µM) of 77.1% and a viability, T/C (second compound 0.01 µM, first compound 3 µM) of 71.8%. It also gave a viability, T/C (second compound 0.0316 µM, first compound 0.00949 µM) of 95.4%, a viability, T/C (second compound 0.0316 µM, first compound 0.03 µM) of 94.7% and a viability, T/C (second compound 0.0316 µM, first compound 0.0949 µM) of 81.3%. It also gave a viability, T/C (second compound 0.0316 µM, first compound 0.3 µM) of 78.8%, a viability, T/C (second compound 0.0316 µM, first compound 0.949 µM) of 77.6% and a viability, T/C (second compound 0.0316 µM, first compound 3 µM) of 69.1%. It also gave a viability, T/C (second compound 0.1 µM, first compound 0.00949 µM) of 96.8%, a viability, T/C (second compound 0.1 µM, first compound 0.03 µM) of 87% and a viability, T/C (second compound 0.1 µM, first compound 0.0949 µM) of 89.1%. It also gave a viability, T/C (second compound 0.1 µM, first compound 0.3 µM) of 88.1%, a viability, T/C (second compound 0.1 µM, first compound 0.949 µM) of 73.2% and a viability, T/C (second compound 0.1 µM, first compound 3 µM) of 66.3%. For the same compound, the viability, T/C (second compound 0.316 µM, first compound 0.00949 µM) was 92.3%, the viability, T/C (second compound 0.316 µM, first compound 0.03 µM) was 92.5% and the viability, T/C (second compound 0.316 µM, first compound 0.0949 µM) was 88.8%. The viability, T/C (second compound 0.316 µM, first compound 0.3 µM) was 83%, the viability, T/C (second compound 0.316 µM, first compound 0.949 µM) was 73.6% and the viability, T/C (second compound 0.316 µM, first compound 3 µM) was 66.5%. For the same compound, the viability, T/C (second compound 1 µM, first compound 0.00949 µM) was 84.1%, the viability, T/C (second compound 1 µM, first compound 0.03 µM) was 82.2% and the viability, T/C (second compound 1 µM, first compound 0.0949 µM) was 82%. For the same compound, the viability, T/C (second compound 1 µM, first compound 0.3 µM) was 73.5%, the viability, T/C (second compound 1 µM, first compound 0.949 µM) was 69.3% and the viability, T/C (second compound 1 µM, first compound 3 µM) was 64%.

O=C(c1cc(Cc2n[nH]c(=O)c3ccccc23)ccc1F)N1CCN(C(=O)C2CC2)CC1 + Cc1c(S(C)(=O)=O)c(-c2cc(F)cc(N3CCN(c4ccc(NS(=O)(=O)c5ccc(NC(CCN6CCC(C(=O)OCCCP(=O)(O)O)CC6)CSc6ccccc6)c(S(=O)(=O)C(F)(F)F)c5)cc4)CC3)c2)c(-c2ccc(Cl)cc2)n1C(C)C gave an IC50 (second compound 0.0316 µM) of over 10 µM, an IC50 (second compound 0.1 µM) of over 10 µM and an IC50 (second compound 0.316 µM) of over 10 µM. The IC50 (second compound 1 µM) was over 10 µM, the IC50 (second compound 3.16 µM) was over 10 µM and the IC50 (second compound 10 µM) was 1.16 µM. It also gave a viability, T/C (second compound 0.0316 µM, first compound 0.0316 µM) of 95.1%, a viability, T/C (second compound 0.0316 µM, first compound 0.1 µM) of 90% and a viability, T/C (second compound 0.0316 µM, first compound 0.316 µM) of 93%. For the same compound, the viability, T/C (second compound 0.0316 µM, first compound 1 µM) was 97.3%, the viability, T/C (second compound 0.0316 µM, first compound 3.16 µM) was 93.3% and the viability, T/C (second compound 0.0316 µM, first compound 10 µM) was 86.9%. It also gave a viability, T/C (second compound 0.1 µM, first compound 0.0316 µM) of 98.3%, a viability, T/C (second compound 0.1 µM, first compound 0.1 µM) of 86.5% and a viability, T/C (second compound 0.1 µM, first compound 0.316 µM) of 94.1%. For the same compound, the viability, T/C (second compound 0.1 µM, first compound 1 µM) was 91.5%, the viability, T/C (second compound 0.1 µM, first compound 3.16 µM) was 94.6% and the viability, T/C (second compound 0.1 µM, first compound 10 µM) was 81.7%. It also gave a viability, T/C (second compound 0.316 µM, first compound 0.0316 µM) of 91.5%, a viability, T/C (second compound 0.316 µM, first compound 0.1 µM) of 90.3% and a viability, T/C (second compound 0.316 µM, first compound 0.316 µM) of 87.2%. The viability, T/C (second compound 0.316 µM, first compound 1 µM) was 85.8%, the viability, T/C (second compound 0.316 µM, first compound 3.16 µM) was 88.7% and the viability, T/C (second compound 0.316 µM, first compound 10 µM) was 77.1%. It also gave a viability, T/C (second compound 1 µM, first compound 0.0316 µM) of 79.4%, a viability, T/C (second compound 1 µM, first compound 0.1 µM) of 76.2% and a viability, T/C (second compound 1 µM, first compound 0.316 µM) of 81.4%. It also gave a viability, T/C (second compound 1 µM, first compound 1 µM) of 79.3%, a viability, T/C (second compound 1 µM, first compound 3.16 µM) of 73.3% and a viability, T/C (second compound 1 µM, first compound 10 µM) of 74.8%. The viability, T/C (second compound 3.16 µM, first compound 0.0316 µM) was 65.4%, the viability, T/C (second compound 3.16 µM, first compound 0.1 µM) was 59.8% and the viability, T/C (second compound 3.16 µM, first compound 0.316 µM) was 60.6%. For the same compound, the viability, T/C (second compound 3.16 µM, first compound 1 µM) was 67.2%, the viability, T/C (second compound 3.16 µM, first compound 3.16 µM) was 62.8% and the viability, T/C (second compound 3.16 µM, first compound 10 µM) was 54.9%. For the same compound, the viability, T/C (second compound 10 µM, first compound 0.0316 µM) was 54.8%, the viability, T/C (second compound 10 µM, first compound 0.1 µM) was 48.4% and the viability, T/C (second compound 10 µM, first compound 0.316 µM) was 50.3%. The viability, T/C (second compound 10 µM, first compound 1 µM) was 51.8%, the viability, T/C (second compound 10 µM, first compound 3.16 µM) was 49.4% and the viability, T/C (second compound 10 µM, first compound 10 µM) was 48.2%.
